Assay results published in patent US4906614A, “Method of treating posttraumatic nervous injuries with dipeptide derivatives” (Gruenenthal GmbH, priority 1985, dated 1990).

What was measured:
[1] = tested on: Cats After Traumatic Spinal Cord Injury; experiment: Neurologic recovery in cats after traumatic spinal cord injury (C-7 weight-drop); assay type: in vivo, cat; parameters: key to total functional score (forelimb + hindlimb scores): sum of forelimb + hindlimb scores, each 0 = no movement to 5 = normal; details: for neurologic and motoric function compared with saline: after 6 weeks
Method: Cats anesthetized with sodium pentobarbital were subjected under aseptic conditions to a laminectomy to expose the C-7 spinal segment. With the dura intact, the spinal cord was traumatized by dropping a 20 g weight a distance of 30 cm through a guide tube onto a 10 square-millimeter impact plate. Drugs were given intravenously as a bolus injection (0.5 ml) at 1 and 3 hours after injury. A group of 9 animals was treated with 0.2mg/kg of orotyl-L-histidyl-L-prolinamide dissolved in 0.5 ml of physiological saline. A second group of 7 animals was given 1 mg/kg L-pyro-2-aminoapidyl-L-nistidyl-thiazolidine-4-carboxamide (also dissolved in 0.5 ml of physiological saline), which compound is referred to hereinafter as "compound A" and which has been described in the literature as an active TRH-modification product and has also been compared with the aforementioned orotylL-histidyl-L-prolinamide (c.f. Metcalf in Thyrotropin Releasing Hormone, E. C. Griffiths et al., eds., Raven Press, New York, 1983, pp. 315-26). A control group of 11 animals was treated with 0.5 ml of physiological saline per animal.
Neurologic function was evaluated weekly for six weeks by a neurologist who was unaware of the treatment group and assessed according to a six-point ordinal scale as described by Faden et al. in Neurology, Vol. 33, pp. 673-678 (1983). Forelimb and hindlimb function were scored separately as follows: 0 =absence of voluntary movement; 1 =spontaneous movement but inability to support weight; 2=ability to support weight but unable to walk; 3=ability to walk but with marked spasticity and/or ataxia; 4=ability to run but with mild spasticity or ataxia; and 5=normal motor function. Forelimb and hindlimb scores were then added together to obtain a total functional score.

[2] = tested on: brain stem compression in cats; details: cited from earlier work
[3] = tested on: experimental spinal cord injury; details: animal experiments; treatment during the first 24 hours following the trauma; cited from earlier work

Q: Which “neurologic and motoric function compared with saline” value ([1]; 1 mg/kg i.v. at 1 and 3 hours after injury) does the source give for `NC(=O)C1CSCN1C(=O)[C@H](Cc1c[nH]cn1)NC(=O)[C@@H]1CCCC(=O)N1` (stereo partly drawn) [A, L-pyro-2-aminoapidyl-L-nistidyl-thiazolidine-4-carboxamide] here?
A: did not differ significantly from those of saline

Q: What about the “total functional score (forelimb + hindlimb scores)” value (from here on “total functional score”) ([1]; week 1 after injury, 1 mg/kg i.v. bolus at 1 and 3 hours after injury, n = 7) of the same compound?
A: 4

Q: What about the “total functional score” value ([1]; week 2 after injury, 1 mg/kg i.v. bolus at 1 and 3 hours after injury, n = 7) of the same compound?
A: 5

Q: What about the “total functional score” value ([1]; week 3 after injury, 1 mg/kg i.v. bolus at 1 and 3 hours after injury, n = 7) of the same compound?
A: 5

Q: And the “total functional score” value ([1]; week 4 after injury, 1 mg/kg i.v. bolus at 1 and 3 hours after injury, n = 7)?
A: 5

Q: What about the “total functional score” value ([1]; week 5 after injury, 1 mg/kg i.v. bolus at 1 and 3 hours after injury, n = 7) of the same compound?
A: 6

Q: What about the “total functional score” value ([1]; week 6 after injury, 1 mg/kg i.v. bolus at 1 and 3 hours after injury, n = 7) of the same compound?
A: 6

Q: What does the source list for `NC(=O)[C@@H]1CCCN1C(=O)[C@H](Cc1c[nH]cn1)NC(=O)c1cc(=O)[nH]c(=O)[nH]1` [Compound of Invention, orotyl-L-histidyl-L-prolinamide]?
A: neurologic and motoric function compared with saline ([1]; 0.2 mg/kg i.v. at 1 and 3 hours after injury): significantly improved; total functional score (forelimb + hindlimb scores) ([1]; week 1 after injury, 0.2 mg/kg i.v. bolus at 1 and 3 hours after injury, n = 9): 6; total functional score (forelimb + hindlimb scores) ([1]; week 2 after injury, 0.2 mg/kg i.v. bolus at 1 and 3 hours after injury, n = 9): 6; total functional score (forelimb + hindlimb scores) ([1]; week 3 after injury, 0.2 mg/kg i.v. bolus at 1 and 3 hours after injury, n = 9): 6; total functional score (forelimb + hindlimb scores) ([1]; week 4 after injury, 0.2 mg/kg i.v. bolus at 1 and 3 hours after injury, n = 9): 7; total functional score (forelimb + hindlimb scores) ([1]; week 5 after injury, 0.2 mg/kg i.v. bolus at 1 and 3 hours after injury, n = 9): 8; total functional score (forelimb + hindlimb scores) ([1]; week 6 after injury, 0.2 mg/kg i.v. bolus at 1 and 3 hours after injury, n = 9): 8

Q: Which results are given for `NC(=O)[C@@H]1CCCN1C(=O)[C@H](Cc1c[nH]cn1)NC(=O)[C@@H]1CCC(=O)N1` [TRH, L-pyroglutamyl-L-histidyl-L-prolinamide]?
A: effect on EEG alterations resulting from traumata of the brain [2]: dose-dependent positive effect; recovery of the motoric function after experimental spinal cord injury [3]: significantly improves recovery of the motoric function
